For the assay, the system named is Human peripheral blood mononuclear cells. Nature of the assay: Human Concanavalin-A Proliferation Assay (Con HU Assay). It counts as cell-based. To be noted: concanavalin-A stimulated human PBMC; for pIC50: tritiated thymidine. As for the experimental part:
Human peripheral blood mononuclear cells were cultured in RPMI 1640 medium supplemented with 10 μg/ml gentamicin, 50 μM 2-mercaptoethanol, 1X MEM non-essential amino acids (Sigma Chemical Co., St. Louis, Mo.), 100 U/ml sodium penicillin G, 100 μg/ml streptomycin sulfate, 2 mM L-glutamine, 1 mM sodium pyruvate (Life Technologies, Grand Island, N.Y.) and 10% fetal bovine serum (Hyclone, Logan, Utah) at 37° C. with 5% CO2.
The procedure in Current Protocols in Immunology, Volume 1, Published by the Greene Publishing Associates and John Wiley & Sons, Inc, Edited by Richard Coico, 1994, hereby incorporated by reference, was followed. Briefly, 50 ml of blood from human volunteers was collected in heparinized syringes and mixed. Blood was diluted 1:1 in Dulbecco's phosphate buffered saline (D-PBS) (Life Technologies, Grand Island, N.Y.) and mixed. PBS-blood mixture was overlaid into 50 ml centrifuge tubes containing 15 ml Histopaque 1077 (Sigma Chemical Co., St. Louis, Mo.) and centrifuged at 500 X G for 30 minutes at room temperature. Cells at the interface from each Histopaque tube were removed and mixed with 5 ml of D-PBS. Each cell suspension was diluted to 50 ml with D-PBS, mixed and centrifuged at 400 X G for 15 minutes at room temperature. After most of the supernatant was removed, cells were resuspended to 40 ml with D-PBS per tube (2 tubes per donor). Cells were centrifuged at 400 X G for 10 minutes at room temperature. Pellets were resuspended in 10 ml of supplemented RPMI 1640 and cell number determined with a Coulter counter. Cells were diluted to a concentration of 0.5×10^6 cells per mL.
The procedure in Current Protocols in Immunology, Volume 1, Published by the Greene Publishing Associates and John Wiley & Sons, Inc, Edited by Richard Coico, 1994, hereby incorporated by reference, was followed. Briefly, test compounds were added to appropriate wells on 96-well tissue culture plates (Corning Glass Works, Corning, N.Y.) in 20 µl of supplemented RPMI 1640. Human peripheral blood mononuclear cells were added to each well in 100 μl volumes (final cell concentration equal to 50,000 cells per well). After 15 minutes, 100 μl of 5 μg/ml concanavalin-A (Sigma Chemical Co., St. Louis, Mo.) in supplemented RPMI 1640 was added to a final concentration of 2.5 μg/ml. Plates were incubated for 3 days at 37° C. with 5% CO2. On day 3, plates were pulsed with 0.5 μCi/well tritiated thymidine (New England Nuclear, Boston, Mass.). After 6 hours, plates were harvested on a Tomatec 96-well havester (Orange, Conn.). Glass filter mats were counted on a Matrix 9600 direct beta counter (Packard, Meriden, Conn.).

Where [1] appears, read: Homo sapiens, PBMC, 72 h, concentration 10 μm (in parentheses in the cell), 3 days, read-out: % Inhibition of proliferation (at concentrations of 1,10, or 100 μm).
Setting [2] is: Homo sapiens, PBMC, 72 h, concentration 1 μm (in parentheses in the cell), 3 days, read-out: % Inhibition of proliferation (at concentrations of 1,10, or 100 μm).
Setting [3] is: concentration 100 μm (in parentheses in the cell), 3 days.

One may read the pIC50 as the IC50 on a negative log10 scale, so that one unit is a factor of ten.

Molecules are shown by their SMILES. pIC50: −log10 of the molar value.

As for `O=C(Nc1ccc(-n2nc(C(F)(F)F)cc2C(F)(F)F)cc1)c1cncc(Br)c1` [Example 256, N-[4-[3,5-bis(trifluoromethyl)-1H-pyrazol-1-yl]phenyl]-5-bromo-3-pyridinecarboxamide], under setting [1], the inhibition at 10 µM was determined as 100%. Besides, for the setting “Homo sapiens, PBMC”, the pIC50 is 6.60.

As to `COc1cc(SC)ccc1C(=O)Nc1ccc(-n2nc(C(F)(F)F)cc2C(F)(F)F)cc1` [Example 179, N-[4-[3,5-bis(trifluoromethyl)-1H-pyrazol-1-yl]phenyl]-2-methoxy-4-(methythio)benzamide], the pIC50 is 5.05. Also, under “concentration 10 μm (in parentheses in the cell), 3 days”, the “% Inhibition of proliferation (at concentrations of 1,10, or 100 μm)” value (“% Inhibition of proliferation” for short) is reported as 47(10) %.

`CC(C)(C)OC(=O)NCCCC(=O)Nc1ccc(-n2nc(C(F)(F)F)cc2C(F)(F)F)cc1` [Example 173, 1,1-Dimethylethyl [[4-[4-[3,5-bis(trifluoromethyl)-1H-pyrazol-1-yl]phenyl]amino]-4-oxobutyl]carbamate]: the “% Inhibition of proliferation” value (concentration 1 μm (in parentheses in the cell), 3 days) is 28(1) %.

For the molecule `Cc1nnsc1C(=O)Nc1ccc(-n2nc(-c3cccnc3)cc2C#N)cc1` [Example 331, N-(4-(5-cyano-3-(3-pyridinyl)-1H-pyrazol-1-yl)phenyl)-4-methyl-1,2,3-thiadiazole-5-carboxamide], the pIC50 (Homo sapiens, PBMC) is 6.66.

`O=C(Nc1ccc(-n2nc(C(F)(F)F)cc2C(F)(F)F)cc1)c1cc([N+](=O)[O-])cc([N+](=O)[O-])c1` [Example 134, N-[4-[3,5-bis(trifluoromethyl)-1H-pyrazol-1-yl]phenyl]-3,5-dinitrobenzamide] gave a pIC50 of 5.56. In addition, where the note is “72 h, concentration 100 μm (in parentheses in the cell), 3 days, read-out: % Inhibition of proliferation (at concentrations of 1,10, or 100 μm)”, the inhibition at 100 µM was found to be 100%.

On to `CC1CCC(C(=O)Nc2ccc(-n3nc(C(F)(F)F)cc3C(F)(F)F)cc2)CC1` (stereo not shown) [Example 54, N-[4-[3,5-bis(trifluoromethyl)-1H-pyrazol-1-yl]phenyl]-4-methylcyclohexanecarboxamide], for which the inhibition at 1 µM under setting [2] was found to be 12%.

`O=C(Nc1ccc(-n2nc(C(F)(F)F)cc2C(F)(F)F)cc1)C1C=CCCC1` (stereo not shown) [Example 53, N-[4-[3,5-bis(trifluoromethyl)-1H-pyrazol-1-yl]phenyl]-2-cyclohexane-1-carboxamide] had a pIC50 of 6.69. For the same molecule, the “% Inhibition of proliferation” value under setting [3] is 99(100) %.

Where the note is “Homo sapiens, PBMC”, `O=C(Nc1ccc(-n2nc(C(F)(F)F)cc2C(F)(F)F)nc1)c1ccccc1F` [Example 292, N-(6-(3,5-bis(trifluoromethyl)-1H-pyrazol-1-yl)-3-pyridinyl)-2-fluorobenzamide] showed a negative-log IC50 (pIC50) of 6.59.

For the molecule `Cn1ccc(-c2cc(OC(F)F)n(-c3ccc(NC(=O)c4ccncc4F)cc3)n2)c1` [Example 358, N-(4-(5-(difluoromethoxy)-3-(1-methyl-1H-pyrrol-3-yl)-1H-pyrazol-1-yl)phenyl)-3-fluoroisonicotinamide], where the note is “Homo sapiens, PBMC”, the pIC50 is 6.69. This pIC50 and that of the molecule before are within 0.2 log units of each other.

As to `O=C(Nc1ccc(-n2nc(C(F)(F)F)cc2-c2cccs2)cc1)c1ccccc1F` [Example 308, 2-fluoro-N-(4-(5-(2-thienyl)-3-(trifluoromethyl)-1H-pyrazol-1-yl)phenyl)benzamide], the pIC50 (Homo sapiens, PBMC) is 6.51. This pIC50 and that of the molecule before are within 0.2 log units of each other.

Consider `O=C(Nc1ccc(-n2nc(C(F)(F)F)cc2C(F)(F)F)cc1)C1CC2C=CC1C2` (stereo not shown) [Example 26, N-[4-[3,5-bis(trifluoromethyl)-1H-pyrazol-1-yl]phenyl]bicyclo[2.2.1]hept-5-ene-2-carboxamide], for which the inhibition at 1 µM under setting [2] came to 24%.

Regarding `O=C(Nc1ccc(-n2nc(C(F)(F)F)cc2C(F)(F)F)cc1)c1cccc2ccccc12` [Example 66, N-[4-[3,5-bis(trifluoromethyl)-1H-pyrazol-1-yl]phenyl]-1-naphthylenecarboxamide], the negative-log IC50 (pIC50) is 5.98. The “% Inhibition of proliferation” value under setting [3] is on record as 97(100) %.

As for `O=C(Nc1ccc(-n2nc(C(F)(F)F)cc2C(F)(F)F)cc1)c1c(F)c(F)c(Br)c(F)c1F` [Example 236, N-[4-[3,5-bis(trifluoromethyl)-1H-pyrazol-1-yl]phenyl]-4-bromo-2,3,5,6-tetrafluorobenzamide], the inhibition at 10 µM under setting [1] amounted to 100%. This molecule showed a negative-log IC50 (pIC50) (Homo sapiens, PBMC) of 6.74.

The values are drawn from patent publication US20010044445A1, “AZOLE INHIBITORS OF CYTOKINE PRODUCTION” (priority 1999, published 2001).
